Experimental data from patent US20030202977A1, “Treatment of osteoarthritis” (New York University, priority 1998, published 2003).
Marks after values point to notes of the source that are not given here.

Experiments:
[1] = test system: human osteoarthritis-affected cartilage; assay: Osteoarthritis-explant assay: release of inflammatory mediators from cartilage organ cultures; type: cell-based; settings: for Effect on PGE2 production / Effect on NO production/accumulation: osteoarthritis-affected cartilage; for Effect on NO production/accumulation: compared to control cartilage; for Nitrite / PGE2: per 100 mg cartilage, 72 hours post stimulation, mean ± S.D., n=3; for Nitrite: JBS5 0.5 μg/ml, αvβ3 Abs 5 μg/ml, L-NMMA 500 μM, IL-1β 1 ng/ml, RGD or RGE 1 mg/ml, control 1.2 ± 0.2; for PGE2: control 13.1 ± 0.2
Source text: ELISA kits for IL-1β, IL-6 and IL-8 were purchased from R and D (Minneapolis, Minn.). Cyclic RGD and RGE peptides were procured form Bachem Biosciences, Inc. (King of Prussia, Pa.). Anti-αvβ3 (JBS5) and anti-3 (LM609) were purchased from Chemicon International (Temecula, Calif.). Another anti-αvβ3 antibody (mAb13) was a generous gift from Dr. Yamada (NIH, Bethesda, Md.).
Cartilage slices were taken from the knees of patients who had been diagnosed with advanced osteoarthritis, ages 50-70 years, who were undergoing knee replacement surgery. Non-arthritic knee cartilage, normal control, ages 20-70 years, was obtained from patients with fractures or from accident victims after knee amputation.
Knee articular cartilage from osteoarthritis patients or normal individuals was cut into 3 mm discs, and 4-6 discs were placed (triplicate or quadruplicate) into a 24-well plate containing 2 ml F-12 medium+0.1% human albumin in the presence or absence of anti-αvβ3 (JBS5) or anti-3 (LM609) antibodies along with various modulators, as previously described by Amin et al (1995 and 1997).
(§1) NO production was measured by estimating the stable NO metabolite, nitrite, in condition medium by modified Griess reaction, Gilliam et al (1993). PGE2 was analyzed from supernatant by RIA, Amin et al (1997).
OA-affected cartilage was incubated in the medium with various modulators: 0.5 μg/ml of α5β1 (JBS5), 5 μg/ml αvβ3 Abs, L-NMMA (500 μM), IL-1β (1 ng/ml), 1 mg/ml of RGD or RGE. The accumulation of IL-1β, IL-8, IL-6, nitrite and PGE2 were estimated 72 hours post stimulation. Data represents±S.D. where n=3. The P values described are compared with the (control) unstimulated OA-affected cartilage. The data represent one of the two similar experiments.

[2] = test system: primary bovine chondrocytes; assay: NO and PGE2 production in primary bovine chondrocytes; type: cell-based
Method: Bovine chondrocytes were seeded in 24 well plates at a density of 0.5×10^6 cells/well in 2 ml medium. After 24 hours post-seeding, the cells were treated with either 50 ng of JBS5 monoclonal antibody or 1 ng/ml IL-1β alone and in the presence and absence of 0.5 μg/ml of sIL-1RII for 72 hours. NO and PGE2 were estimated as described in Materials and Methods. The data present one of the two similar experiments. Data represent mean±s.d. value. The p values described are compared with IL-l (*) or anti-α5β1 monoclonal antibody (**); *p≦0.01, **p≦0.01.
Bovine chondrocytes were seeded in 24 well plates and stimulated with 1 ng/ml Il-1β, 100 μg/ml LPS, IL-1β+LPS+TNFα and anti-α5β1 monoclonal antibody in the presence or absence of 5 μg/ml anti-αvβ3. The accumulation of NO and PGE2 was estimated at the end of 72 hours. The data represent one of the two similar experiments the data represent mean±s.d. value.
Bovine chondrocytes were isolated as previous described by Attur et al 1998. Briefly, cartilage slices from bovine cartilage were finely minced and digested sequentially with 0.2% testicular hyaluronidase for five minutes at 37° C., and 0.2% collagenase for 1-2 hours at 37° C. After being strained through sterile nylon mesh, the cells were centrifuged at 1200×g for ten minutes. The cell pellets were washed twice with Ham's F-12 medium, followed by resuspension and centrifuging at 1000×g for ten minutes. Finally, the pellets were suspended in complete F-12 medium before being plated to flasks.
as §1

chondrocytes = assay: Nitric oxide versus PGE2 production in chondrocytes; type: cell-based
[3] = target: α5β1 integrin of human cartilage chondrocytes (human) (UniProt P08648); assay: cell-based or functional assay
Chain of UniProt P08648 (P08648 42-1049, chain 1 of 2): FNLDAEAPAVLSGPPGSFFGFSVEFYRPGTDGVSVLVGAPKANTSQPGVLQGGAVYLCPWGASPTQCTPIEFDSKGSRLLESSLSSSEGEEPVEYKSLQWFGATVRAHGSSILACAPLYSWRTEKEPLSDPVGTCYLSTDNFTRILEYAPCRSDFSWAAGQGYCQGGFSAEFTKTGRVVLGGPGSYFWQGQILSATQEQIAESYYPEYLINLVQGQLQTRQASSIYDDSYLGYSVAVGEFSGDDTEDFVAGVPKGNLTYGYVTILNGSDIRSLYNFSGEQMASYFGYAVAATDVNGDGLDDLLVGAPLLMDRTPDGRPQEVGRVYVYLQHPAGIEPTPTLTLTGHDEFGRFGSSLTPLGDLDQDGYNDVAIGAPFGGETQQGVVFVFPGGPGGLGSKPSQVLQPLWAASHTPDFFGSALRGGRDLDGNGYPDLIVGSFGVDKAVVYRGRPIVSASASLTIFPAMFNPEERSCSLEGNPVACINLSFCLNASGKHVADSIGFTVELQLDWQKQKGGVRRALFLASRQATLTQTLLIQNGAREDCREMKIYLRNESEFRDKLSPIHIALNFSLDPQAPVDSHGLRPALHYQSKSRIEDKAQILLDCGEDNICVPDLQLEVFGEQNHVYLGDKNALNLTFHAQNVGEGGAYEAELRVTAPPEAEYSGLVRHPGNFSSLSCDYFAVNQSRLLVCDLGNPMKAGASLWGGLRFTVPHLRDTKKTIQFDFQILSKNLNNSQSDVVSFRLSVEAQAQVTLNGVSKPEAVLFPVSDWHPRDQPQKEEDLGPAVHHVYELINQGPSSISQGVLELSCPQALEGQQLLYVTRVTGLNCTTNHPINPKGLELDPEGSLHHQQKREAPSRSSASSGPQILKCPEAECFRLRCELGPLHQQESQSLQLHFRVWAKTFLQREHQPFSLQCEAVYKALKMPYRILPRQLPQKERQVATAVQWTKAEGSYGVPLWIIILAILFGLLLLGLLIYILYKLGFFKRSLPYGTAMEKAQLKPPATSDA
Chain of UniProt P08648 (P05556 21-798, chain 2 of 2, further chain): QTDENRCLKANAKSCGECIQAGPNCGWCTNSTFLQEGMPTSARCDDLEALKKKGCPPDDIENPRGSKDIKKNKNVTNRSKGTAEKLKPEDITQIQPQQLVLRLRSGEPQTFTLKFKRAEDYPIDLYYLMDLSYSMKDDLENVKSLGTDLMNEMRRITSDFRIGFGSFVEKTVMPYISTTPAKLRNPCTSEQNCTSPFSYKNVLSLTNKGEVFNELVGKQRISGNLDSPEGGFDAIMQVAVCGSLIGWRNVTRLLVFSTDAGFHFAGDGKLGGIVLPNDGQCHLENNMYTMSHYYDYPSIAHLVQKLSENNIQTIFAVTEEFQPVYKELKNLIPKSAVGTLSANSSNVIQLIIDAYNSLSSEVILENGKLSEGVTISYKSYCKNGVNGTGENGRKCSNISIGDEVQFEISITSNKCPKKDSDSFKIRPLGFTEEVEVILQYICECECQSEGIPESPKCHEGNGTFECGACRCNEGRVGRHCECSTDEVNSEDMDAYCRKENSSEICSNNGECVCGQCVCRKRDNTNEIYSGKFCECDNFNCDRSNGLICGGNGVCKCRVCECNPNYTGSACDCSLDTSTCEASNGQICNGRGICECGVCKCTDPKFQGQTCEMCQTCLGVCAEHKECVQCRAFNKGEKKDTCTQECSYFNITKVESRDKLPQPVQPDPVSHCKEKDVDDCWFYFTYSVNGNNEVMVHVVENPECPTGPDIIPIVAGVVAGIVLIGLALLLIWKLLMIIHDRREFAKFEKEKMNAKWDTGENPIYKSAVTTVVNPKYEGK

## IL-1β: cytokine used as positive control, 1 ng/ml
[1]
  Effect on PGE2 production: augmented
  Effect on NO production/accumulation: augmented
  Nitrite: 17.3 ± 2.4^a μM
  PGE2: 29.6 ± 7.2^c ng/ml
[2]; primary bovine chondrocytes
  Effect on NO and PGE2 (inflammatory mediator) production, substance added as modulator: up-regulation

## CNC(=N)NCCC[C@H](N)C(=O)O [NMMA]
[1]
  Effect on PGE2 production: augmented
  Effect on NO production/accumulation: inhibition
  Nitrite: 0.8 ± 0.1^c μM
  PGE2: 18.4 ± 0.8^c ng/ml

## osteopontin: soluble secretory phosphoprotein, ligand of αvβ3
[1]
  Effect on NO production/accumulation: inhibited
chondrocytes
  Inhibition of PGE2 production relative to nitric oxide production: equally inhibit

## JBS5 monoclonal antibody
[3]
  IL-1β, human OA-affected cartilage explants, 72 h, 0.5 µg/ml JBS5 (pg/ml per 100 mg cartilage): 87.6
  IL-6, human OA-affected cartilage explants, 72 h, 0.5 µg/ml JBS5 (ng/ml per 100 mg cartilage): 17.7
  IL-8, human OA-affected cartilage explants, 72 h, 0.5 µg/ml JBS5 (ng/ml per 100 mg cartilage): 17.7
  Nitrite, human OA-affected cartilage explants, 72 h, 0.5 µg/ml JBS5 (µM per 100 mg cartilage): 12.7
  PGE2, human OA-affected cartilage explants, 72 h, 0.5 µg/ml JBS5 (ng/ml per 100 mg cartilage): 19.1

B1: sIL-1RII: recombinant soluble type II IL-1 receptor cloned from human neutrophils, released from Sf9 insect cells (protein)
chain: FTLQPAAHTGAARSCRFRGRHYKREFRLEGEPVALRCPQVPYWLWASVSPRINLTWHKNDSARTVPGEEETRMWAQDGALWLLPALQEDSGTYVCTTRNASYCDKMSIELRVFENTDAFLPFISYPQILTLSTSGVLVCPDLSEFTRDKTDVKIQWYKDSLLLDKDNEKFLSVRGTTHLLVHDVALEDAGYYRCVLTFAHEGQQYNITRSIELRIKKKKEETIPVIISPLKTISASLGSRLTIPCKVFLGTGTPLTTMLWWTANDTHIESAYPGGRVTEGPRQEYSENNENYIEVPLIFDPVTREDLHMDFKCVVHNTLSFQTLRTTVKE
[1]; human arthritis affected cartilage, ex vivo, in the presence or absence of IL-1
  Effect on production of IL-1, nitric oxide, PGE2, IL-6, IL-8 and MMPs: inhibits
[1]; osteoarthritis cartilage explants, FIG. 1b
  Effect on IL-1β and JBS5 monoclonal antibody induced NO and PGE2 production: inhibited significantly
[2]; preincubation of cells for fifteen minutes
  Effect on IL-1β induced accumulation of NO and PGE2: blocked
[2]; preincubation of cells for fifteen minutes, inducer is JBS5
  Effect on anti-αvβ3 monoclonal antibody induced production of NO and PGE2: blocked
